Measured values published in paper PMC7395068, “The evolution of strategies to minimise the risk of human drug-induced liver injury (DILI) in drug discovery and development” (Archives of Toxicology, 2020).
Where two headings read alike, the source gives them in different places.

What was measured:
[1] = Plasma free fraction (fu) and unbound Cmax (Cmax,u); assay type: in vitro ADME, human; details: unbound plasma Cmax
HepG2 = tested on: HepG2; set-up: method as in Albrecht 2019; details: In vitro Assay; ref Albrecht 2019; cited from earlier work
[2] = cited from earlier work
[3] = tested on: primary human hepatocytes, NIH3T3 fibroblasts, BSEP, CYP3A4; details: cited from earlier work
HepG2 cells [4] = details: cited from earlier work
HepG2 cells [5] = details: cited from earlier work; remark: listed apart in the source
human hepatocytes = details: cited from earlier work
[6] = tested on: THLE or HepG2 cells, isolated mitochondria, BSEP; details: cited from earlier work
PHH [7] = details: cited from earlier work
hLiMTs [8] = details: cited from earlier work
PHH spheroids = details: In vitro Assay; ref Vorrink 2018; cited from earlier work
[9] = tested on: HepG2 C3A spheroid, BSEP, Glu/Gal in HepG2 cells, bioactivation; details: cited from earlier work
[10] = read-out: Human plasma Cmax; total plasma Cmax.tot, median of 9 literature references; cited from earlier work
[11] = plasma free fraction; cited from earlier work
[12] = cited from earlier work; remark: listed apart in the source
PHH [13] = details: In vitro Assay; ref Albrecht 2019; cited from earlier work
[14] = tested on: THLE-Null and THLE-3A4 cells; details: In vitro Assay; ref Gustafsson 2014; cited from earlier work
[15] = tested on: HepG2 cells, primary human hepatocytes; details: In vitro Assay; ref Garside 2014; cited from earlier work
[16] = tested on: isolated mouse liver mitochondria; details: In vitro Assay; ref Porceddu 2012; cited from earlier work
rBsep = details: In vitro Assay; ref Dawson 2012; cited from earlier work
hLiMTs [17] = assay: Combined HCI (HCS) and cellular ATP 3D assay in hLiMTs; details: for AC50 / minimal effective concentration: Homo sapiens
HepaRG spheroids = assay: Combined HCI (HCS) and cellular ATP 3D assay in HepaRG spheroids; details: for AC50 / minimal effective concentration: Homo sapiens
[18] = In vitro Assay, ref Schadt 2015
[19] = In vitro Assay, ref Persson 2013
[20] = Modeled in vitro assays (cytotoxicity, mitochondrial dysfunction, BSEP), ref Aleo et al. 2019
[21] = In vitro Assay, ref Proctor 2017
[22] = Microtissue model structural based (HCI), combined HCS and ATP, MEC < 25 × Cmax.tot cut-off

- Human plasma Cmax,u [1]: 0.064 µM
- hLiMTs <25x Avg Cmax ATP (hLiMTs [17]; hLiMTs, ATP endpoint, cut-off <25x Avg Cmax): +ve
- hLiMTs <100x Avg Cmaxu ATP (hLiMTs [17]; hLiMTs, ATP endpoint, cut-off <100x Avg Cmaxu): -ve
- hLiMTs <25x Avg Cmax HCS (hLiMTs [17]; hLiMTs, HCS endpoints, cut-off <25x Avg Cmax): +ve
- hLiMTs <100x Avg Cmaxu HCS (hLiMTs [17]; hLiMTs, HCS endpoints, cut-off <100x Avg Cmaxu): -ve
- hLiMTs <25x Avg Cmax All (hLiMTs [17]; hLiMTs, all endpoints (ATP and HCS), cut-off <25x Avg Cmax): +ve
- hLiMTs Cmax max All (hLiMTs [17]; hLiMTs, all endpoints, Cmax max used): +ve
- hLiMTs Cmax min All (hLiMTs [17]; hLiMTs, all endpoints, Cmax min used): +ve
- hLiMTs <10 uM All (hLiMTs [17]; hLiMTs, all endpoints, cut-off <10 uM): -ve
- hLiMTs <100x Avg Cmaxu All (hLiMTs [17]; hLiMTs, all endpoints, cut-off <100x Avg Cmaxu): -ve
- HepaRG <25x Avg Cmax ATP (HepaRG spheroids; HepaRG, ATP endpoint, cut-off <25x Avg Cmax): +ve
- HepaRG <100x Avg Cmaxu ATP (HepaRG spheroids; HepaRG, ATP endpoint, cut-off <100x Avg Cmaxu): -ve
- HepaRG <25x Avg Cmax HCS (HepaRG spheroids; HepaRG, HCS endpoints, cut-off <25x Avg Cmax): +ve
- HepaRG <100x Avg Cmaxu HCS (HepaRG spheroids; HepaRG, HCS endpoints, cut-off <100x Avg Cmaxu): -ve
- HepaRG <25x Avg Cmax All (HepaRG spheroids; HepaRG, all endpoints (ATP and HCS), cut-off <25x Avg Cmax): +ve
- HepaRG Cmax max All (HepaRG spheroids; HepaRG, all endpoints, Cmax max used): +ve
- HepaRG Cmax min All (HepaRG spheroids; HepaRG, all endpoints, Cmax min used): +ve
- HepaRG <10 uM All (HepaRG spheroids; HepaRG, all endpoints, cut-off <10 uM): -ve
- HepaRG <100x Avg Cmaxu All (HepaRG spheroids; HepaRG, all endpoints, cut-off <100x Avg Cmaxu): -ve
SMILES: Cc1c(C)c2c(c(C)c1O)CCC(C)(COc1ccc(CC3SC(=O)NC3=O)cc1)O2 (stereo not drawn) [troglitazone, reference compound]
- Cytotoxicity HepG2 48 hrs (HepG2): +VE
- DILI severity category (Chen et al. [2016]) ([2]; LTKB DILIrank category, ref Chen et al. 2016): Most
- DILI severity category (Chen 2016) ([2]; human DILI classification, LTKB DILIrank, ref Chen et al. 2016): Most
- DILI severity category ([2]; human DILI severity, ref Chen et al.): Most
- DILI +VE (5-8), DILI -VE (-4) ([2]; ref Chen 2016): +VE
- DILI severity category ([2]; ref Chen 2016): vMost-DILI-Concern
- DILI in vitro assay prediction, Schadt (2015) ([3]; BSEP & Metabolism based, ref Schadt et al. 2015): +VE
- Cellular toxicity (3T3 cells) [3, 18]: +VE
- Combined Assay [3, 18]: +VE
- GSH adduct HML [3, 18]: +VE
- Hepatocyte cellular toxicity [3, 18]: +VE
- MitoTox 3T3 [3, 18]: -VE
- TDI CYP3A4 [3, 18]: +VE
- hBSEP inhibition [3, 18]: +VE
- Cluser analysis (HepG2 cells [4]; [19]): +VE
- Structural based (HCI) (HepG2 cells [4]; [19]): +VE
- DILI in vitro assay prediction, Persson (2013) (HepG2 cells [4]; Structural based (HCI), HepG2, ref Persson et al. 2013): +VE
- Structural based (HCI) (HepG2 cells [5]; In vitro Assay, ref Tolosa 2012): +VE
- DILI in vitro assay prediction, Tolosa (2012) (HepG2 cells [5]; Structural based (HCI), HepG2, ref Tolosa et al. 2012): +VE
- Structural based (HCI) (human hepatocytes; In vitro Assay, ref Xu 2008): +VE
- DILI in vitro assay prediction, Xu (2008) (human hepatocytes; Structural based (HCI), human hepatocytes, ref Xu et al. 2008): +VE
- Partition Hybrid HRM Score ([6]; In vitro Assay, ref Aleo 2019): +VE
- Ro2 Hybrid HRM Score ([6]; In vitro Assay, ref Aleo 2019): +VE
- Partition Hybrid HRM Score ≥4, Aleo (2019) [6, 20]: +VE (Partition Hybrid HRM Score ≥4)
- Partition Hybrid HRM Score ≥8, Aleo (2019) [6, 20]: +VE (Partition Hybrid HRM Score ≥8)
- Rule of Two hybrid HRM Score ≥3, Aleo (2019) [6, 20]: +VE (Rule of Two hybrid HRM Score ≥3)
- Rule of Two hybrid HRM Score ≥8, Aleo (2019) [6, 20]: +VE (Rule of Two hybrid HRM Score ≥8)
- PHH/100xCmax, Proctor (2017) (PHH [7]; 2D PHH, ATP, IC50 < 100 × Cmax.tot, ref Proctor et al. 2017): -VE
- PHH/100uM, Proctor (2017) (PHH [7]; 2D PHH, ATP, IC50 threshold 100 µM, ref Proctor et al. 2017): -VE
- PHH ATP <100uM (PHH [7]; [21]): -VE
- hLiMTs ATP <100uM (hLiMTs [8]; [21]): +VE (IC50 threshold of 100 µM)
- hLiMTs/100xCmax, Proctor (2017) (hLiMTs [8]; hLiMTs, ATP, IC50 < 100 × Cmax.tot, ref Proctor et al. 2017): +VE (IC50 < 100 × Cmax.tot)
- hLiMTs/100uM, Proctor (2017) (hLiMTs [8]; hLiMTs, ATP, IC50 threshold 100 µM, ref Proctor et al. 2017): +VE (IC50 threshold of 100 µM)
- hLiMTs ATP <20 x Cmax (PHH spheroids): +VE (IC20 < 20 × Cmax.tot cut-off)
- Bayesian Machine Learning DILI prediction, Williams (2019) ([9]; Bayesian modeling, ref Williams et al. 2019): +VE
- Bayesian Machine Learning ([9]; In vitro Assay, ref Williams 2019): +VE
- Cmax [10]: 6.39 µM
- fu [11]: 0.010
- Assigned DILI category ([12]; Chen et al. 2016 or literature alignment, ref Chen et al. 2016): 3
- In vivo DILI ([12]; […]): +VE
- In vivo DILI ([12]; ref Albrecht 2019): +VE
- In vivo DILI ([12]; ref Aleo 2019): +VE
- In vivo DILI ([12]; ref Dawson 2012): +VE
- In vivo DILI ([12]; ref Garside 2014): +VE
- In vivo DILI ([12]; ref Gustafsson 2014): +VE
- In vivo DILI ([12]; ref Persson 2013): +VE
- In vivo DILI ([12]; ref Porceddu 2012): +VE
- In vivo DILI ([12]; ref Proctor 2017): +VE
- In vivo DILI ([12]; ref Schadt 2015): +VE
- In vivo DILI ([12]; ref Tolosa 2012): +VE
- In vivo DILI ([12]; ref Vorrink 2018): +VE
- In vivo DILI ([12]; ref Williams 2019): +VE
- In vivo DILI ([12]; ref Xu 2008): +VE
- Cytotoxicity PHH 48 hrs (PHH [13]): +VE
- THLE-Null [14]: +VE
- THLE-Null/3A4 [14]: -VE
- Cluster 1-6 +VE Assay [15]: +VE
- in vitro data EC2<=1x Cmax [16]: +VE
- in vitro data EC20<=2uM [16]: +VE
- Inhibition of rBsep cutoff<1& cmax u>.2 (rBsep): +VE
- Inhibition of rBsep cutoff<3 (rBsep): +VE
- AC50 (hLiMTs [17]; read-out: ATP endpoint AC50): 89.5 µM
- minimal effective concentration (hLiMTs [17]; read-out: ATP endpoint MEC): 74 µM
- AC50 (hLiMTs [17]; read-out: HCS endpoint AC50): 73.6 µM
- minimal effective concentration (hLiMTs [17]; read-out: HCS endpoint MEC): 67.6 µM
- DILI prediction hLiMTs (HCS-MEC) (hLiMTs [17]; [22]): +VE (MEC < 25 × Cmax.tot cut-off)
- AC50 (HepaRG spheroids; HepaRG, read-out: ATP endpoint AC50): 28.8 µM
- minimal effective concentration (HepaRG spheroids; HepaRG, read-out: ATP endpoint MEC): 25 µM
- AC50 (HepaRG spheroids; HepaRG, read-out: HCS endpoint AC50): 33 µM
- minimal effective concentration (HepaRG spheroids; HepaRG, read-out: HCS endpoint MEC): 22 µM
- DILI prediction HepaRG spheroids (HCS-MEC) (HepaRG spheroids; [22]): +VE (MEC < 25 × Cmax.tot cut-off)
